According to patent US20220323406A1, “METHODS AND COMPOSITIONS FOR DIFFERENTIATING STEM CELLS” (Massachusetts Institute of Technology, priority 2019, published 2022):

Legend:
[1] = tested on: ENR+CD organoids (ISC to Paneth cell differentiation); test: Primary screen: basal (non-stimulated) lysozyme secretion LYZ.NS, 2.5-D 384-well ENR+CD organoid differentiation; format: cell-based, mouse; settings: primary screen; for Z.LYZ.NS: standard z score
Excerpt: (§1) High-throughput screening.

[2] = tested on: ENR+CD organoids (ISC to Paneth cell differentiation); test: Primary screen: CCh-stimulated lysozyme secretion LYZ.S, 2.5-D 384-well ENR+CD organoid differentiation; format: cell-based, mouse; settings: primary screen
Excerpt: as §1

[3] = tested on: ENR+CD organoids; test: Primary screen: ATP (CellTiter-Glo 3D, CTG) cell number/viability, 2.5-D 384-well ENR+CD organoids; settings: primary screen; for Z.CTG: standard z score;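 on all read-outs here: compounds given at plating and again on day 3 over a 6-day differentiation from ENR+CV stem-cell-enriched precursors, ATP measured on day 6, plate median as control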
[4] = dose 0.08 uM, FC vs plate median
[5] = dose 0.40 uM, FC vs plate median
[6] = dose 2.00 uM, FC vs plate median
[7] = dose 10.00 uM, FC vs plate median
[8] = dose 0.08 uM, FC relative to plate median
[9] = dose 0.40 uM, FC relative to plate median
[10] = dose 2.00 uM, FC relative to plate median
[11] = dose 10.00 uM, FC relative to plate median

| SMILES | Dose.FC.LYZ.NS (log2 fold change) ([1]; dose 0.08 uM) | Z.LYZ.NS (standard z score) ([1]; dose 0.08 uM) | Dose.FC.LYZ.NS (log2 fold change) ([1]; dose 0.40 uM) | Z.LYZ.NS (standard z score) ([1]; dose 0.40 uM) | Dose.FC.LYZ.NS (log2 fold change) ([1]; dose 2.00 uM) | Z.LYZ.NS (standard z score) ([1]; dose 2.00 uM) | Dose.FC.LYZ.NS (log2 fold change) ([1]; dose 10.00 uM) | Z.LYZ.NS (standard z score) ([1]; dose 10.00 uM) | Dose.FC.LYZ.S (log2 fold change) ([2]; dose 0.08 uM) | Dose.FC.LYZ.S (log2 fold change) ([2]; dose 0.40 uM) | Dose.FC.LYZ.S (log2 fold change) ([2]; dose 2.00 uM) | Dose.FC.LYZ.S (log2 fold change) ([2]; dose 10.00 uM) | Dose.FC.CTG (log2 fold change) ([3]; dose 0.08 uM) | Z.CTG (standard z score) ([3]; dose 0.08 uM) | Dose.FC.CTG (log2 fold change) ([3]; dose 0.40 uM) | Z.CTG (standard z score) ([3]; dose 0.40 uM) | Dose.FC.CTG (log2 fold change) ([3]; dose 2.00 uM) | Z.CTG (standard z score) ([3]; dose 2.00 uM) | Dose.FC.CTG (log2 fold change) ([3]; dose 10.00 uM) | Z.CTG (standard z score) ([3]; dose 10.00 uM) | also measured |
| --- | --- | --- | --- | --- | --- | --- | --- | --- | --- | --- | --- | --- | --- | --- | --- | --- | --- | --- | --- | --- | --- |
| Cc1c(C(=O)Nc2ccc(N3C[C@@H](C)O[C@@H](C)C3)nc2)cccc1-c1ccc(OC(F)(F)F)cc1 [LDE225 (NVP-LDE225, Erismodegib)] | 0.085 | 0.739 | 0.101 | 0.881 | 0.011 | 0.094 | 0.049 | 0.426 | 0.095 | 0.074 | 0.002 | 0.006 | 0.107 | 0.255 | 0.067 | 0.159 | 0.229 | 0.546 | −0.001 | −0.002 | – |
| Cc1ccc(NC(=O)c2ccc(CN3CCN(C)CC3)cc2)cc1Nc1nccc(-c2cccnc2)n1 [Imatinib (STI571)] | 0.033 | 0.284 | 0.012 | 0.104 | 0.025 | 0.217 | −0.038 | −0.333 | 0.000 | 0.038 | −0.001 | −0.037 | −0.150 | −0.357 | 0.079 | 0.188 | 0.056 | 0.135 | −0.034 | −0.082 | – |
| Cc1cnc(-c2cc(N3CCN(C(=O)CCS(C)(=O)=O)CC3)ncc2Cl)c(C)c1 [PF-5274857] | – | – | – | – | – | – | – | – | – | – | – | – | – | – | – | – | – | – | – | – | Z.LYZ.NS ([1]; dose 0.08 uM): 0.683; Z.LYZ.NS ([1]; dose 0.40 uM): −0.256; Z.LYZ.NS ([1]; dose 2.00 uM): 0.094; Z.LYZ.NS ([1]; dose 10.00 uM): 0.642; Dose.FC.LYZ.NS [1, 4]: 0.078 log2 fold change; Dose.FC.LYZ.NS [1, 5]: −0.029 log2 fold change; Dose.FC.LYZ.NS [1, 6]: 0.011 log2 fold change; Dose.FC.LYZ.NS [1, 7]: 0.074 log2 fold change; Dose.FC.LYZ.S [2, 4]: 0.187 log2 fold change; Dose.FC.LYZ.S [2, 5]: −0.034 log2 fold change; Dose.FC.LYZ.S [2, 6]: 0.042 log2 fold change; Dose.FC.LYZ.S [2, 7]: 0.076 log2 fold change; Z.CTG ([3]; dose 0.08 uM): −0.242; Z.CTG ([3]; dose 0.40 uM): −0.096; Z.CTG ([3]; dose 2.00 uM): 0.131; Z.CTG ([3]; dose 10.00 uM): −0.183; Dose.FC.CTG [3, 4]: −0.101 log2 fold change; Dose.FC.CTG [3, 5]: −0.040 log2 fold change; Dose.FC.CTG [3, 6]: 0.055 log2 fold change; Dose.FC.CTG [3, 7]: −0.076 log2 fold change |
| CC(C)N(CCCNC(=O)Nc1ccc(C(C)(C)C)cc1)C[C@H]1O[C@@H](n2cc(Br)c3c(N)ncnc32)[C@H](O)[C@@H]1O [SGC0946] | – | – | – | – | – | – | – | – | – | – | – | – | – | – | – | – | – | – | – | – | Dose.FC.LYZ.NS [1, 8]: 0.090 log2 fold change; Z.LYZ.NS ([1]; dose 0.08 uM): 0.787; Dose.FC.LYZ.NS [1, 9]: −0.027 log2 fold change; Z.LYZ.NS ([1]; dose 0.40 uM): −0.236; Dose.FC.LYZ.NS [1, 10]: 0.200 log2 fold change; Z.LYZ.NS ([1]; dose 2.00 uM): 1.738; Dose.FC.LYZ.NS [1, 11]: 0.059 log2 fold change; Z.LYZ.NS ([1]; dose 10.00 uM): 0.516; Dose.FC.LYZ.S [2, 8]: 0.145 log2 fold change; Dose.FC.LYZ.S [2, 9]: −0.098 log2 fold change; Dose.FC.LYZ.S [2, 10]: 0.220 log2 fold change; Dose.FC.LYZ.S [2, 11]: 0.065 log2 fold change; Dose.FC.CTG [3, 8]: 0.052 log2 fold change; Dose.FC.CTG [3, 9]: −0.122 log2 fold change; Dose.FC.CTG [3, 10]: −0.082 log2 fold change; Dose.FC.CTG [3, 11]: −0.142 log2 fold change |
